Data taken from patent US9828369B2, “Isoquinoline derivatives useful as inhibitors of diacylglyceride O-acyltransferase 2” (Merck Sharp & Dohme Corp., priority 2014, dated 2017).
Like-named read-outs stand apart in the source and are kept apart here.

Target: hDGAT2 (Homo sapiens (Human), UniProt Q96PD7)
Test: DGAT2 enzymatic activity assay (triolein formation, LC/MS/MS)
[1] = read-out: IC50 values for inhibition of DGAT2, membrane prep of Sf-9 cells expressing hDGAT2, 25 μM diolein, 10 μM oleoyl-CoA, room temperature, triolein by LC/MS/MS

hDGAT2, sequence (Q96PD7 whole entry): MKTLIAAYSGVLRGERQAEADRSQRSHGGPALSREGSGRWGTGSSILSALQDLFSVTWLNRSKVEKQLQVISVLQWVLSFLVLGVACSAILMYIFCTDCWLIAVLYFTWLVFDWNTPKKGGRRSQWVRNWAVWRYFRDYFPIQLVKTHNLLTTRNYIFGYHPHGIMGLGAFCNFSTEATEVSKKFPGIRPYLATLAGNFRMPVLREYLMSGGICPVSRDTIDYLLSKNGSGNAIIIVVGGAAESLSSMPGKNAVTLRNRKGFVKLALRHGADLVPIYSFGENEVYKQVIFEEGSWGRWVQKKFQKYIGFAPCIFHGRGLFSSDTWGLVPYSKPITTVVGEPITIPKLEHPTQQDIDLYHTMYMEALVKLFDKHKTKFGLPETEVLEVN

## COc1cccc(-c2ccc(CNC(=O)[C@@H]3COC(c4ccccc4)=N3)c3cnccc23)c1 (racemic) [Example 42, (R/S)-N-((5-(3-methoxyphenyl)isoquinolin-8-yl)methyl)-2-phenyl-4,5-dihydrooxazole-4-carboxamide]
  IC50: 3.55 µM

## CC[C@H](C(=O)NCc1ccc(-c2cccc(OC)c2)c2ccncc12)c1ccc(C(F)(F)F)c(F)c1 (racemic) [Example 126, (R/S)-2-(3-fluoro-4-(trifluoromethyl)phenyl)-N-((5-(3-methoxyphenyl)isoquinolin-8-yl)methyl)butanamide]
  IC50: 0.373 µM

## COc1cccc(-c2ccc(CNC(=O)[C@H](C)c3ccc4cc(OC)ccc4c3)c3cnccc23)c1 (racemic) [Example 142, (R/S)-2-(6-methoxynaphthalen-2-yl)-N-((5-(3-methoxyphenyl)isoquinolin-8-yl)methyl)propanamide]
  IC50: 0.118 µM

## COc1cccc(-c2ccc(CNC(=O)[C@H](C)c3ccc(CC(C)C)cc3)c3cnccc23)c1 (racemic) [Example 146, (R/S)-2-(4-isobutylphenyl)-N-((5-(3-methoxyphenyl)isoquinolin-8-yl)methyl)propanamide]
  IC50: 0.923 µM

## N#Cc1cccc(-c2ccc(CNC(=O)[C@@H]3C[C@H]3c3ccccc3)c3cnccc23)c1 (relative stereo) [Example 16, (trans)-N-((5-(3-cyanophenyl)isoquinolin-8-yl)methyl)-2-phenylcyclopropanecarboxamide]
[1]
  IC50: 3.47 µM

## COc1ccc([C@@H]2C[C@@H]2C(=O)NCc2ccc(-c3cccc(OC)c3)c3ccncc23)cc1 (relative stereo) [Example 24, (cis)-2-(4-methoxyphenyl)-N-((5-(3-methoxyphenyl)isoquinolin-8-yl)methyl)cyclopropanecarboxamide]
[1]
  IC50: 0.589 µM

## COc1cccc(-c2ccc(CNC(=O)[C@H]3C[C@@H]3c3nc(C)no3)c3cnccc23)c1 (relative stereo) [Example 108, (trans)-N-((5-(3-methoxyphenyl)isoquinolin-8-yl)methyl)-2-(3-methyl-1,2,4-oxadiazol-5-yl) cyclopropanecarboxamide]
[1]
  IC50: 0.589 µM

## COc1cccc(-c2ccc(CNC(=O)[C@@H]3C[C@@H]3c3ccc(C(F)(F)F)cc3)c3cnccc23)c1 (relative stereo) [Example 144, (cis)-N-((5-(3-methoxyphenyl)isoquinolin-8-yl)methyl)-2-(4-(trifluoromethyl)phenyl) cyclopropanecarboxamide]
[1]
  IC50: 2.56 µM

## COC(=O)c1cccc(-c2ccc(CNC(=O)Cc3ccc(C(F)(F)F)cc3)c3cnccc23)c1 [Example 2, methyl 3-(8-((2-(4-(trifluoromethyl)phenyl)acetamido)methyl)isoquinolin-5-yl)benzoate]
[1]
  IC50: 0.0856 µM

## COC(=O)c1cccc(-c2ccc(CNC(=O)[C@@H]3C[C@H]3c3ccccc3)c3cnccc23)c1 [Example 3, methyl 3-(8-(((1R,2R)-2-phenylcyclopropanecarboxamido)methyl)isoquinolin-5-yl)benzoate]
[1]
  IC50: 0.0827 µM

## COC(=O)c1cccc(-c2ccc(CNC(=O)C3CC3c3nc(C)no3)c3cnccc23)c1 (stereo not drawn) [Example 4, methyl 3-(8-((2-(3-methyl-1,2,4-oxadiazol-5-yl)cyclopropane-carboxamido)methyl)isoquinolin-5-yl)benzoate]
[1]
  IC50: 0.0965 µM

## COC(=O)c1cccc(-c2ccc(CNC(=O)C3CCN(c4ccc(C(F)(F)F)cc4)CC3)c3cnccc23)c1 [Example 5, methyl 3-(8-((1-(4-(trifluoromethyl)phenyl)piperidine-4-carboxamido)methyl)isoquinolin-5-yl)benzoate]
[1]
  IC50: 0.1 µM

## COC(=O)c1cccc(-c2ccc(CNC(=O)Cc3ccc(Oc4ccccc4)cc3)c3cnccc23)c1 [Example 6, methyl 3-(8-((2-(4-phenoxyphenyl)acetamido)methyl)isoquinolin-5-yl)benzoate]
[1]
  IC50: 0.101 µM

## COC(=O)c1cccc(-c2ccc(CNC(=O)c3cc(C(C)(C)C)nn3C)c3cnccc23)c1 [Example 7, methyl 3-(8-((3-(tert-butyl)-1-methyl-1H-pyrazole-5-carboxamido)methyl)isoquinolin-5-yl)benzoate]
[1]
  IC50: 0.111 µM

## COC(=O)c1cccc(-c2ccc(CNC(=O)c3cnn(-c4ccccc4)c3C(F)(F)F)c3cnccc23)c1 [Example 8, methyl 3-(8-((1-phenyl-5-(trifluoromethyl)-1H-pyrazole-4-carboxamido)methyl)isoquinolin-5-yl)benzoate]
[1]
  IC50: 0.123 µM

## CCCc1cc(C(=O)NCc2ccc(-c3cccc(C(=O)OC)c3)c3ccncc23)n(C)n1 [Example 9, methyl 3-(8-((1-methyl-3-propyl-1H-pyrazole-5-carboxamido)methyl)isoquinolin-5-yl)benzoate]
[1]
  IC50: 0.132 µM

## COC(=O)c1cccc(-c2ccc(CNC(=O)C3CC34CCCC4)c3cnccc23)c1 (stereo not drawn) [Example 10, methyl 3-(8-((spiro[2.4]heptane-1-carboxamido)methyl)isoquinolin-5-yl)benzoate]
[1]
  IC50: 0.162 µM

## COC(=O)c1cccc(-c2ccc(CNC(=O)c3nccc4ccccc34)c3cnccc23)c1 [Example 11, 8-((isoquinoline-1-carboxamido)methyl)-5-(3-(methoxycarbonyl)phenyl) isoquinolin-2-ium]
  IC50: 0.163 µM

## COC(=O)c1cccc(-c2ccc(CNC(=O)c3cccc4cnccc34)c3cnccc23)c1 [Example 12, 8-((isoquinoline-5-carboxamido)methyl)-5-(3-(methoxycarbonyl)phenyl) isoquinolin-2-ium]
[1]
  IC50: 0.196 µM

## COC(=O)c1cccc(-c2ccc(CNC(=O)c3ccnn3C)c3cnccc23)c1 [Example 13, methyl 3-(8-((1-methyl-1H-pyrazole-5-carboxamido)methyl)isoquinolin-5-yl)benzoate]
[1]
  IC50: 1.23 µM

## CCOC(=O)c1cccc(-c2ccc(CNC(=O)C3CC3c3ccccc3)c3cnccc23)c1 (stereo not drawn) [Example 14, ethyl 3-(8-((2-phenylcyclopropanecarboxamido)methyl)isoquinolin-5-yl)benzoate]
[1]
  IC50: 0.071 µM

## CCOc1cccc(-c2ccc(CNC(=O)C3CC3c3ccccc3)c3cnccc23)c1 (stereo not drawn) [Example 15, N-((5-(3-ethoxyphenyl)isoquinolin-8-yl)methyl)-2-phenylcyclopropanecarboxamide]
[1]
  IC50: 0.115 µM

## O=C(NCc1ccc(-c2cccc(OC(F)(F)F)c2)c2ccncc12)C1CC1c1ccccc1 (stereo not drawn) [Example 17, 2-phenyl-N-((5-(3-(trifluoromethoxy)phenyl)isoquinolin-8-yl)methyl)cyclopropanecarboxamide]
[1]
  IC50: 3.76 µM

## COCc1cccc(-c2ccc(CNC(=O)C3CC3c3ccccc3)c3cnccc23)c1 (stereo not drawn) [Example 18, N-((5-(3-(methoxymethyl)phenyl)isoquinolin-8-yl)methyl)-2-phenylcyclopropanecarboxamide]
[1]
  IC50: 0.278 µM

## CC(C)Oc1cccc(-c2ccc(CNC(=O)C3CC3c3ccccc3)c3cnccc23)c1 (stereo not drawn) [Example 19, N-((5-(3-isopropoxyphenyl)isoquinolin-8-yl)methyl)-2-phenylcyclopropanecarboxamide]
[1]
  IC50: 0.888 µM

## CC(C)OC(=O)c1cccc(-c2ccc(CNC(=O)C3CC3c3ccccc3)c3cnccc23)c1 (stereo not drawn) [Example 20, isopropyl 3-(8-((2-phenylcyclopropanecarboxamido)methyl)isoquinolin-5-yl)benzoate]
[1]
  IC50: 1.86 µM

## NC(=O)c1cccc(-c2ccc(CNC(=O)C3CC3c3ccccc3)c3cnccc23)c1 (stereo not drawn) [Example 22, 3-(8-((2-phenylcyclopropanecarboxamido)methyl)isoquinolin-5-yl)benzamide]
[1]
  IC50: 6.27 µM
